Experimental findings from patent publication US20050148631A1, “Amino heterocyclyl inhibitors of 11-beta-hydroxy steroid dehydrogenase type 1” (AGOURON PHARMACEUTICALS, INC., priority 2003, published 2005) are described below.

Assay [1] has as its target T1, 11β-hsd-1 enzyme (Homo sapiens, UniProt P28845). The assay can be described thus: 11β-hsd-1 enzyme assay, percentage of inhibition (3H-cortisone to cortisol, radio-HPLC). Format: biochemical. As to conditions: read-out: % inh @ 0.1 uM.
Assay [2] deals with T1, 11β-hsd-1 enzyme. The assay can be described thus: 11β-hsd-1 enzyme assay, Kiapp determination (3H-cortisone to cortisol, radio-HPLC). Format: biochemical. The following applies: read-out: Ki app.

SMILES strings stand for the structures. Like-named read-outs stand apart in the source and are kept apart here.

T1 sequence (P28845 whole entry, species assumed): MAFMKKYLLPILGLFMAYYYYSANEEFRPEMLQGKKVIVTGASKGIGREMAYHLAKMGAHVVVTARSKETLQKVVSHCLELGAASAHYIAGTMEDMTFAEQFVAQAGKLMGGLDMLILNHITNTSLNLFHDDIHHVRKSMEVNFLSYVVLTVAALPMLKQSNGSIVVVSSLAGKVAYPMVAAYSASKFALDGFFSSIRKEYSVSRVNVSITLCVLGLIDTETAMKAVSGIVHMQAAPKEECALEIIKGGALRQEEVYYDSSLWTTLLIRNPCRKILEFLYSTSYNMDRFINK

For the compound `Cc1cccc(NS(=O)(=O)c2ccc(-c3cccc(C(C)C)c3)c(C)c2)n1` [Example 236], the inhibition at 0.1 µM at 11β-hsd-1 enzyme [1] (compound at 0.1 uM) was found to be 81%. In addition, on 11β-hsd-1 enzyme [2] (apparent Ki, 11β-hsd-1 enzyme), the Ki was 110 nM.

For the compound `N#Cc1ccc(-c2ccc(S(=O)(=O)Nc3ccc4ccccc4n3)cc2)cn1` [Example 289], at 11β-hsd-1 enzyme [1] (compound at 0.1 uM), the inhibition at 0.1 µM is 73.9%. The Ki on 11β-hsd-1 enzyme [2] (apparent Ki, 11β-hsd-1 enzyme) was 68 nM.

For the compound `Cc1cccc(NS(=O)(=O)c2ccc(-c3ccc(F)cc3)c(C)c2)n1` [Example 280], on 11β-hsd-1 enzyme [1] (compound at 0.1 uM), the inhibition at 0.1 µM was determined as 91%. Also, the Ki at 11β-hsd-1 enzyme [2] (apparent Ki, 11β-hsd-1 enzyme) was determined as 15 nM.

In the case of `Cc1c(Cl)cccc1S(=O)(=O)Nc1cccc(N)n1` [Example 41], at 11β-hsd-1 enzyme [1] (0.1 uM), the inhibition at 0.1 µM was 94%. Besides, on 11β-hsd-1 enzyme [2], the Ki is 17 nM.

For the compound `Cc1cc(C)nc(NS(=O)(=O)c2ccc(-c3ccccc3)cc2)c1` [Example 65], at 11β-hsd-1 enzyme [1] (0.1 uM), the inhibition at 0.1 µM was 59.4%. Also, on 11β-hsd-1 enzyme [2], the Ki amounted to 18.3 nM.

`Cc1cccc(NS(=O)(=O)c2ccc(-c3cc(F)cc(F)c3)c(C)c2)n1` [Example 225]: the inhibition at 0.1 µM on 11β-hsd-1 enzyme [1] (compound at 0.1 uM) was determined as 28%. The Ki on 11β-hsd-1 enzyme [2] (apparent Ki, 11β-hsd-1 enzyme) is 16 nM.

On to `Cc1cccc(NS(=O)(=O)N2CCC(c3cccc(F)c3)CC2)n1` [Example 309], for which the inhibition at 0.1 µM at 11β-hsd-1 enzyme [1] (compound at 0.1 uM) was determined as 90%. At 11β-hsd-1 enzyme [2] (apparent Ki, 11β-hsd-1 enzyme), the Ki turned out to be 7.6 nM.

As to `Cc1cccc(NS(=O)(=O)c2ccc(-c3ccc(Cl)cc3Cl)cc2C)n1` [Example 167], the inhibition at 0.1 µM on 11β-hsd-1 enzyme [1] (0.1 uM) was determined as 100%. Moreover, the Ki at 11β-hsd-1 enzyme [2] came to 36 nM.

For `Cc1cccc(NS(=O)(=O)c2ccc(-c3ccc(F)cc3)cc2)n1` [Example 128], the inhibition at 0.1 µM at 11β-hsd-1 enzyme [1] (0.1 uM) was 86.8%. Further, the Ki on 11β-hsd-1 enzyme [2] is 19.7 nM.

Consider `Cc1cccc(NS(=O)(=O)c2ccc(-c3ccccc3)cc2)n1` [Example 36], for which the inhibition at 0.1 µM on 11β-hsd-1 enzyme [1] (0.1 uM) worked out at 52%. At 11β-hsd-1 enzyme [2], the Ki amounted to 48 nM.

For the compound `Cc1cccc(NS(=O)(=O)c2ccc(C(F)(F)F)cc2)n1` [Example 35], at 11β-hsd-1 enzyme [1] (0.1 uM), the inhibition at 0.1 µM came out at 98%. The Ki at 11β-hsd-1 enzyme [2] was found to be 108 nM.

With `Cc1cccc(NS(=O)(=O)c2ccc(-c3ccccc3)c(C)c2)n1` [Example 214], on 11β-hsd-1 enzyme [1] (compound at 0.1 uM), the inhibition at 0.1 µM is 72%. At 11β-hsd-1 enzyme [2] (apparent Ki, 11β-hsd-1 enzyme), the Ki was determined as 36 nM.

On to `Cc1cccc(NS(=O)(=O)c2ccc(-c3ccc(C(F)(F)F)cn3)cc2)n1` [Example 271], for which, at 11β-hsd-1 enzyme [1] (compound at 0.1 uM), the inhibition at 0.1 µM came out at 87.7%. For the same compound, the Ki on 11β-hsd-1 enzyme [2] (apparent Ki, 11β-hsd-1 enzyme) amounted to 20 nM.

In the case of `Cc1cccc(NS(=O)(=O)c2ccc(-c3ccc(CO)cc3)cc2C)n1` [Example 180], the inhibition at 0.1 µM on 11β-hsd-1 enzyme [1] (0.1 uM) worked out at 65%. Moreover, at 11β-hsd-1 enzyme [2], the Ki came out at 75 nM.

`CCc1cccc(NS(=O)(=O)c2cccc(Cl)c2C)n1` [Example 56]: on 11β-hsd-1 enzyme [1] (0.1 uM), the inhibition at 0.1 µM came to 66.8%. For the same compound, at 11β-hsd-1 enzyme [2], the Ki is 47.6 nM.

For the compound `COc1cc(-c2ccc(S(=O)(=O)Nc3cccc(C)n3)cc2)ccc1C#N` [Example 270, 4′-Cyano-3′-methoxy-biphenyl-4-sulfonic acid (6-methyl-pyridin-2-yl)-amide], on 11β-hsd-1 enzyme [1] (compound at 0.1 uM), the inhibition at 0.1 µM is 94.8%. In addition, the Ki at 11β-hsd-1 enzyme [2] (apparent Ki, 11β-hsd-1 enzyme) was 10.7 nM.

As for `Cc1cccc(NS(=O)(=O)c2ccc(-c3ccc(N4CCOCC4)cc3)cc2)n1` [Example 251], the inhibition at 0.1 µM at 11β-hsd-1 enzyme [1] (compound at 0.1 uM) is 83.6%. Moreover, the Ki at 11β-hsd-1 enzyme [2] (apparent Ki, 11β-hsd-1 enzyme) is 29 nM.

Consider `O=S(=O)(Nc1ccc2ccccc2n1)c1ccc(-c2ccc(F)cc2)nc1` [Example 291], for which the inhibition at 0.1 µM at 11β-hsd-1 enzyme [1] (compound at 0.1 uM) was determined as 92.5%. Besides, the Ki on 11β-hsd-1 enzyme [2] (apparent Ki, 11β-hsd-1 enzyme) was 27 nM.

Turning to `Cc1cccc(NS(=O)(=O)c2sc(-c3ccc(C#N)cc3)nc2C)n1` [Example 118, 2-(4-Cyano-phenyl)-4-methyl-thiazole-5-sulfonic acid (6-methyl-pyridin-2-yl)-amide], the inhibition at 0.1 µM on 11β-hsd-1 enzyme [1] (0.1 uM) turned out to be 100%. The Ki on 11β-hsd-1 enzyme [2] was 2.5 nM.

As to `Cc1cccc(NS(=O)(=O)c2ccc(-c3ccccc3Cl)cc2C)n1` [Example 164], the inhibition at 0.1 µM on 11β-hsd-1 enzyme [1] (0.1 uM) stood at 93%. Moreover, the Ki at 11β-hsd-1 enzyme [2] is 13 nM.

For `Nc1cccc(NS(=O)(=O)c2ccc(-c3ccccc3)cc2)n1` [Example 40], the inhibition at 0.1 µM at 11β-hsd-1 enzyme [1] (0.1 uM) amounted to 98%. In addition, the Ki at 11β-hsd-1 enzyme [2] was determined as 4.3 nM.

Take `Cc1cccc(NS(=O)(=O)c2ccc(-c3ccc(C#N)cc3)cc2C)n1` [Example 277, 4′-Cyano-3-methyl-biphenyl-4-sulfonic acid (6-methyl-pyridin-2-yl)-amide]: the inhibition at 0.1 µM at 11β-hsd-1 enzyme [1] (compound at 0.1 uM) turned out to be 100%. The Ki at 11β-hsd-1 enzyme [2] (apparent Ki, 11β-hsd-1 enzyme) is less than 1 nM.
